Experimental findings from patent US10227369B2, “Short-chain fatty acid hexosamine analogs and their use in tissue engineering applications” (THE JOHNS HOPKINS UNIVERSITY, priority 2013, dated 2019) are described below.

One data set relates to Chondrocytes. The experiment in a line: WST-1 metabolic activity/toxicity screening of monolayer chondrocytes. The data set is classed as cell-based, bovine. The settings on record: 3 days exposure, 0-320 μM tested. The procedure: Cell Isolation and Culturing. Bovine chondrocytes were isolated from 4- to 8-week-old calves (Research 87, Inc., Boylston, Mass.), as previously described. Briefly, cartilage was dissected from the femoral patellar groove and condyles and minced into approximately 1 mm^2 pieces. Cells were isolated from the tissue by digesting overnight at 37° C. with 2 mg/ml type II collagenase (Worthington Biochemical Corp., Lakewood, N.J.), 5% fetal bovine serum (FBS), 100 U/ml penicillin and 100 μg/ml streptomycin on an orbital shaker. The cell suspension was passed through a 70 μm cell strainer, followed by centrifugation. Cells were washed 3 times using sterile phosphate buffered saline (PBS). […]
Metabolic Activity/Toxicity Screening: Water Soluble Tetrazonium-1 (WST-1) Assay. […] Absorbance of the wells was read using a microplate reader at a wavelength of 450 nm. The absorbance of the wells containing WST-1 reagent with no cells was subtracted from the absorbance readings. Data is presented as the background subtracted reading normalized to 0 μM wells from five independent experiments for each hexosamine analog.

Data set [1] deals with IL-1β-stimulated chondrocytes. The data set can be described thus: IL-1β-stimulated chondrocytes in 3D PEGDA hydrogels: biochemical analysis (DNA, sGAG, collagen), histology, immunohistochemistry. The data set is classed as cell-based, bovine. The settings on record: 10 ng/ml IL-1β, 21 days. The method, then:
Cell Isolation and Culturing. Bovine chondrocytes were isolated from 4- to 8-week-old calves (Research 87, Inc., Boylston, Mass.), as previously described. Briefly, cartilage was dissected from the femoral patellar groove and condyles and minced into approximately 1 mm^2 pieces. Cells were isolated from the tissue by digesting overnight at 37° C. with 2 mg/ml type II collagenase (Worthington Biochemical Corp., Lakewood, N.J.), 5% fetal bovine serum (FBS), 100 U/ml penicillin and 100 μg/ml streptomycin on an orbital shaker. The cell suspension was passed through a 70 μm cell strainer, followed by centrifugation. Cells were washed 3 times using sterile phosphate buffered saline (PBS). Chondrocyte medium was composed of high glucose Dulbecco's Modified Eagle's Medium (DMEM) supplemented with 10 mM HEPES, 0.4 mM L-proline, 50 μg/ml ascorbic acid, 10% (v/v) fetal bovine serum (FBS; Hyclone Laboratories, Inc., Logan, Utah), 0.1 mM non-essential amino acids, 100 U/ml penicillin and 100 μg/ml streptomycin.
(§1) Photoencapsulation in Poly(Ethylene Glycol)-Diacrylate (PEGDA) Hydrogels and Construct Culturing. For all 3D culture experiments, cells were photoencapsulated in PEGDA hydrogels, as previously described. Briefly, 100 mg PEGDA (3.4 kDa, SunBio, Anyang City, South Korea) was dissolved in 1 ml sterile PBS. A photoinitiator solution of Irgacure® 2959 (CIBA Specialty Chemicals) was prepared by dissolving 100 mg of Irgacure® 2959 in 1 ml 70% ethanol. Five microliters of the Irgacure® 2959 solution was added to 1 ml of PEGDA solution. Cells were suspended in the hydrogel precursor solution at a density of 20 million cells/ml and polymerized in sterile molds. A high cell density was chosen as it has been shown. Based on our previous studies a high cell density was chosen to best to support a cell phenotype and differentiation and cell phenotype. Polymerization was carried out using UV light (365 nm, 3.2 mW/cm^2) exposure for 5 minutes.
For chondrocyte experiments, the cell-laden hydrogels were cultured in chondrocyte medium supplemented with 10 ng/ml IL-1β for 3 days. Following the initial 3 days, constructs were cultured with medium containing specific concentrations of hexosamine analog with 10 ng/ml IL-1β for an additional 21 days. The medium was changed 3 times per week.
Biochemical Analysis. The constructs (n=3 for chondrocyte experiments and n=4 for chondrogenic experiments) were lyophilized for 48 hours and the dry weights measured. Constructs were then homogenized in 125 μg/ml papainase (Worthington Biochemical Corp., Lakewood, N.J.) and digested for 16 hours at 60° C. Quantification of DNA content was carried out using a Hoescht Dye 33342 DNA assay. Calf thymus DNA was used to generate standard curves. Quantification of sulfated glycosaminoglycans (sGAG), a molecule found in cartilage ECM, was carried out using a 1,9-dimethylmethylene blue (DMMB) dye assay; chondroitin sulfate was used to generate standard curves. Quantification of collagen was carried out via measuring hydroxyproline content after hydrolyzing in 6 N HCl overnight at 120° C. The reaction of hydroxyproline with chloramine-T and p-dimethylaminobenzaldehyde was performed as a measure of total collagen content; hydroxyproline was used to generate standard curves.
Histology and Immunohistochemistry. Constructs were fixed in 10% formalin or 4% paraformaldehyde followed by dehydration in increasing concentrations of ethanol, embedded in paraffin and sliced into 5 μm sections. After paraffin removal and subsequent rehydration, sections were stained for proteoglycans using Safranin-O and fast green or prepared for immunohistochemistry. For immunohistochemical staining of type II collagen, endogenous peroxidase was quenched using 3% (v/v) hydrogen peroxide in methanol. Sections were then incubated at 37° C. with 2.5% (w/v) hyaluronidase and stained using a Histostain-SP Kit (AEC, Broad Spectrum) (Life Technologies, Grand Island, N.Y.) following the manufacturer's instructions. […]

Data set [2] deals with chondrogenic-induced MSCs. The data set can be described thus: Chondrogenic-induced MSCs in 3D PEGDA hydrogels: biochemical analysis and histology. The format is cell-based, goat. The note with it: 21 days. The procedure:
(§2) Goat MSCs were isolated from 2- to 4-year-old goats (Thomas D. Morris, Inc., Reisterstown, Md.), as previously described. Briefly, bone marrow aspirates treated with 6,000 U/ml heparin were washed twice with PBS. Cells were plated at a density of 120,000 mononuclear cells/cm^2 and cultured in high glucose DMEM supplemented with 10% (v/v) FBS, 2 mM L-glutamine, 100 U/ml penicillin and 100 μg/ml streptomycin. The following day, tissue culture dishes were washed with PBS and medium was replaced. Medium changes were performed 3 times per week. Cells were passaged using 0.25% trypsin. They were used for experiments after passage four.
as §1, with “minutes. […]” for “minutes.”
(§3) Biochemical Analysis. The constructs (n=3 for chondrocyte experiments and n=4 for chondrogenic experiments) were lyophilized for 48 hours and the dry weights measured. […] Quantification of DNA content was carried out using a Hoescht Dye 33342 DNA assay. […] Quantification of sulfated glycosaminoglycans (sGAG), a molecule found in cartilage ECM, was carried out using a 1,9-dimethylmethylene blue (DMMB) dye assay; chondroitin sulfate was used to generate standard curves. Quantification of collagen was carried out via measuring hydroxyproline content after hydrolyzing in 6 N HCl overnight at 120° C. […]

Data set [3] relates to chondrogenic-induced MSCs. The experiment in a line: Chondrogenic-induced MSCs in 3D PEGDA hydrogels: real-time PCR gene expression. The data set is classed as cell-based, goat. The method, then:
as §2, §1
For chondrogenesis experiments, the cell-laden hydrogels were cultured in chondrogenic induction medium (high glucose DMEM supplemented with 50 μg/ml ascorbic acid-2-phosphate, 40 μg/ml L-proline, 100 μg/ml sodium pyruvate, 1% ITS-premix (6.25 μg/ml insulin, 6.25 μg/ml transferrin, 6.25 ng/ml selenous acid, 1.25 mg/ml bovine serum albumin (BSA), 5.35 μg/ml linoleic acid (Collaborative Biomedical, BD Bioscience, Bedford, Mass.)) and 10 ng/ml TGF-β1 (Fitzgerald Industries International, Acton, Mass.) with specified concentrations of GalNAc-a or 100 nM dexamethasone (as a control). Constructs were cultured for 21 days with medium changes 3 times per week. For IL-1β stimulation, the cell-laden hydrogels were cultured for 3 days in chondrogenic induction medium supplemented with 10 ng/ml IL-1β. Constructs were cultured for an additional 21 days with chondrogenic induction medium supplemented with 10 ng/ml IL-1β and the specified concentration of GalNAc-a.
RNA Isolation and Real-Time PCR. Total RNA was extracted using TRIzol® reagent (Life Technologies, Grand Island, N.Y.) following the manufacturer's protocol. cDNA was synthesized using Superscript® II reverse transcriptase (Life Technologies, Grand Island, N.Y.) following the manufacturer's protocol. Real-time PCR was carried out using a StepOnePlus™ Real-Time PCR System (Life Technologies, Grand Island, N.Y.). mRNA amounts for bovine primers were calculated using the ΔΔCt method. Relative mRNA quantities for goat primers were calculated using the Pfaffl method.
For orientation: Quantitative PCR measures a nucleic acid by following its amplification.

Data set [4] relates to chondrogenic-induced MSCs stimulated by IL-1β. The data set can be described thus: IL-1β-stimulated chondrogenic-induced MSCs in 3D PEGDA hydrogels: biochemical analysis. The format is cell-based, goat. The settings on record: 10 ng/ml IL-1β, 21 days exposure. The procedure: as §2
Photoencapsulation in Poly(Ethylene Glycol)-Diacrylate (PEGDA) Hydrogels and Construct Culturing. […]
as §3

[5] abbreviates: both medium conditions, 21 days, dexamethasone 100 nM.

Each structure is given as a SMILES string. Some results are limits rather than exact numbers.

For the compound `CCCC(=O)OC[C@H]1OC(O)[C@H](NC(C)=O)[C@@H](OC(=O)CCC)[C@H]1OC(=O)CCC` (stereo partly drawn) [GalNAc-a, 3,4,6-O-Bu3GalNAc], the “concentration from which reduced viability was observed” value in the data set with Chondrocytes was at least 160 µM. Moreover, the “proteoglycan deposition (Safranin-O staining)” value in data set [1] (at 150 μM) is “further increase”. For the same compound, the “sGAG accumulation normalized to DNA” value in data set [1] (at 150 μM) is “further increase”; in data set [2] (both medium conditions (with/without ascorbic acid), GalNAc-a varying concentrations, dexamethasone 100 nM) it was “dose-dependent decrease”; in data set [4], “decreased sGAG accumulation”. In data set [1] (starting at 50 μM, comparison of the three analogs), the “type II collagen deposition (immunohistochemistry)” value was “highest staining intensity”. Also, in data set [1] (comparison of the three analogs), the “cartilage-like tissue formation (sGAG content, proteoglycan and type II collagen staining)” value is “greatest cartilage-like tissue formation”. Besides, the “chondrogenic differentiation of the MSCs” value in data set [2] is reported as “inhibits chondrogenic differentiation”. For the same compound, the “total collagen accumulation normalized to DNA” value in data set [2] (ascorbic acid-containing medium, GalNAc-a varying concentrations, dexamethasone 100 nM) is “dose-dependent decrease”. In addition, the DNA content entry in data set [2] (with or without ascorbic acid) is “did not change”; in data set [4], “did not have an effect”. The SOX9 gene expression entry in data set [3] (50 μM to 150 μM, both medium conditions, 21 days) is given as “decreased in a dose-dependent manner”; in data set [3] (50 μM, ascorbic acid-containing medium, 21 days), “increased SOX9 expression”. Further, in data set [3] (50 μM, both medium conditions, 21 days), the “type I collagen gene expression” value is listed as “initially increased”. For the same compound, the “type I collagen gene expression compared to no analog exposure” value in data set [3] (above 50 μM for GalNAc-a, dexamethasone 100 nM, both medium conditions) is on record as “remained elevated”. In addition, the MMP13 gene expression result in data set [3] (all analog concentrations, regardless of medium condition) is “increased at all analog concentrations”. In data set [3] (setting [5]), the aggrecan gene expression entry was “followed a similar trend as SOX9 expression”. Besides, the “type II collagen gene expression” value in data set [3] (setting [5]) is reported as “decreased type II collagen expression”.
